{
  "source": "patent US7109243B2",
  "about": "(IRM LLC, priority 2003, dated 2006)",
  "key": {"[1]": {"biological_target": "Cathepsin S (Homo sapiens, UniProt P25774)", "sequence (P25774 115-331, species assumed)": "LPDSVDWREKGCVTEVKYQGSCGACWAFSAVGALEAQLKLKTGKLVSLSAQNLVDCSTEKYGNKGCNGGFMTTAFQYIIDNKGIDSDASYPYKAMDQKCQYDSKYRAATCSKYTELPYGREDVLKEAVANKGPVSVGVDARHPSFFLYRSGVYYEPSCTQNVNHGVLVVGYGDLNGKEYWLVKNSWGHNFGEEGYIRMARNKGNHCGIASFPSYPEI", "test": "Cathepsin S inhibition assay (fluorogenic peptide substrate)", "format": "biochemical", "conditions": "Table II, compounds of Formula I; read-out: Ki Cat. S", "protocol": "“Inhibition constant”, Ki, is the dissociation constant of the enzyme-inhibitor complex, or the reciprocal of the binding affinity of the inhibitor to the enzyme. […] The inhibited rates are then fit by nonlinear regression to the following equation: […]\nThe assumption being made for the classical inhibition described above is that the free inhibitor concentration is equal to the total inhibitor concentration.\nKinetic measurements are performed in a total reaction volume of 30 μl in 384-well microtiter plates. […] The reactions are initiated by adding the substrate, acetyl-histidine-proline-valine-lysine-amino carbamoyl coumarin, to a final concentration of 50 μM. The rate of substrate hydrolysis is measured by monitoring the increase in fluorescence at an excitation wavelength of 380 nm and an emission wavelength of 450 nm that results from cleavage of the aniline bond in the substrate by the enzyme."}, "[2]": {"biological_target": "T1, Cathepsin K (Homo sapiens, UniProt P43235)", "T1 sequence (P43235 115-329)": "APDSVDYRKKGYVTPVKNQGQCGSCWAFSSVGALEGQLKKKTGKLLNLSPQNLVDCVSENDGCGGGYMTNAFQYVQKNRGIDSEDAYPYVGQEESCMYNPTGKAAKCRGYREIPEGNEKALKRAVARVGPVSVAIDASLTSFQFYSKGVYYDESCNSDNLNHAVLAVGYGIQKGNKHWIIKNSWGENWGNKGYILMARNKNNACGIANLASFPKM", "test": "Cathepsin K inhibition assay (fluorogenic peptide substrate); selectivity ratio vs cathepsin S", "format": "biochemical", "conditions": "ratio of cathepsin K inhibition constant to cathepsin S inhibition constant; Table II", "protocol": "The optimal substrate for cathepsin K, acetyl-lysine-histidine-proline-lysine-amino carbamoyl coumarin, was identified from screening a combinatorial library of fluorogenic peptide substrates (Harris, J. L., B. J. Backes, et al., Proc Natl Acad Sci USA 2000, 97(14), 7754-9). Kinetic measurements are performed in a total reaction volume of 30 μl in 384-well microtiter plates. […] The reactions are initiated by adding the substrate, acetyl-lysine-histidine-proline-lysine-amino carbamoyl coumarin, to a final concentration of 40 μM. The rate of substrate hydrolysis is measured by monitoring the increase in fluorescence at an excitation wavelength of 380 nm and an emission wavelength of 450 nm that results from cleavage of the aniline bond in the substrate by the enzyme. The apparent inhibition constants for the compounds are determined from the enzyme progress curves ([…]. Elrod, et al., Anal Biochem 2000, 286(1), 45-50) and are then used to calculate the inhibition constants for competitive inhibitors. Selectivity for cathepsin S in the presence of cathepsin isozymes was determined by the ratio of the cathepsin isozyme inhibition constant of a compound of the present invention to the cathepsin S inhibition constant of the same compound."}},
  "data": [
    {"compound": "COc1ccc(NCCNC(=O)C(NC(=O)c2cccc(C)c2)c2ccccc2OCc2ccccc2)cc1", "note": "(centres unmarked) [Compound 214, N-{(2-Benzyloxy-phenyl)-[2-(4-methoxy-phenylamino)-ethylcarbamoyl]-methyl}-3-methyl-benzamide]", "values": [
      {"measurement": "Ki", "setting": "[1]", "value": "< 100", "unit": "nM"},
      {"measurement": "Selectivity for Cat. S over Cat. K", "setting": "[2]", "value": "+++ (+++, >1000)"}
    ]},
    {"compound": "CC[C@@H](C(=O)N[C@@H](CC1CCCCC1)C(=O)NCCNc1ccc(OC(F)(F)F)cc1)c1ccccc1", "note": "[Compound 135, N-{2-cyclohexyl-1-(S)-[2-(4-trifluoromethoxy-phenylamino)-ethylcarbamoyl]-ethyl}-2-(R)-phenyl-butyramide]", "values": [
      {"measurement": "Ki", "setting": "[1]", "value": "< 100", "unit": "nM"},
      {"measurement": "Selectivity for Cat. S over Cat. K", "setting": "[2]", "value": "+++ (+++, >1000)"}
    ]},
    {"compound": "COc1ccc(NCCNC(=O)[C@H](Cc2ccc(-c3cc(Cl)ccc3Cl)cc2)NC(=O)c2cccc(C)c2)cc1", "note": "[Compound 286, (S)-N-{2-(2′,5′-Dichloro-biphenyl-4-yl)-1-[2-(4-methoxy-phenylamino)-ethylcarbamoyl]-ethyl}-3-methyl-benzamide]", "values": [
      {"measurement": "Ki", "setting": "[1]", "value": "< 10000", "unit": "nM"},
      {"measurement": "Selectivity for Cat. S over Cat. K", "setting": "[2]", "value": "+ (+, >10)"}
    ]},
    {"compound": "COc1ccc(NCCNC(=O)[C@H](CC2CCCCC2)NC(=O)c2cccc(F)c2C)cc1", "note": "[Compound 147, (S)-N-{2-Cyclohexyl-1-[2-(4-methoxy-phenylamino)-ethylcarbamoyl]-ethyl}-3-fluoro-2-methyl-benzamide]", "values": [
      {"measurement": "Ki", "setting": "[1]", "value": "< 100", "unit": "nM"},
      {"measurement": "Selectivity for Cat. S over Cat. K", "setting": "[2]", "value": "+++ (+++, >1000)"}
    ]},
    {"compound": "O=C(N[C@@H](CC1CCCCC1)C(=O)NCCNc1ccc(F)cc1)c1ccco1", "note": "[Compound 264, Furan-2-carboxylic acid (S)-{2-cyclohexyl-1-[2-(4-fluoro-phenylamino)-ethylcarbamoyl]-ethyl}-amide]", "values": [
      {"measurement": "Ki", "setting": "[1]", "value": "< 100", "unit": "nM"},
      {"measurement": "Selectivity for Cat. S over Cat. K", "setting": "[2]", "value": "++ (++, >100)"}
    ]},
    {"compound": "COc1ccc(NCCNC(=O)[C@H](CCC2CCCCC2)NC(=O)[C@@H](C)c2ccccc2)cc1", "note": "[Compound 128]", "values": [
      {"measurement": "Ki", "setting": "[1]", "value": "< 100", "unit": "nM"},
      {"measurement": "Selectivity for Cat. S over Cat. K", "setting": "[2]", "value": "+++ (+++, >1000)"}
    ]},
    {"compound": "COc1ccc(NCCNC(=O)[C@H](Cc2cccc(C(F)(F)F)c2)NC(=O)c2cccc(C)c2)cc1", "note": "[Compound 252, (S)-N-[1-[2-(4-Methoxy-phenylamino)-ethylcarbamoyl]-2-(3-trifluoromethyl-phenyl)-ethyl]-3-methyl-benzamide]", "values": [
      {"measurement": "Ki", "setting": "[1]", "value": "< 100", "unit": "nM"},
      {"measurement": "Selectivity for Cat. S over Cat. K", "setting": "[2]", "value": "+++ (+++, >1000)"}
    ]},
    {"compound": "COc1ccc(NCCNC(=O)[C@H](Cc2cccc(F)c2)NC(=O)c2cccc(C)c2)cc1", "note": "[Compound 236, (S)-N-{2-(3-Fluoro-phenyl)-1-[2-(4-methoxy-phenylamino)-ethylcarbamoyl]-ethyl}-3-methyl-benzamide]", "values": [
      {"measurement": "Ki", "setting": "[1]", "value": "< 100", "unit": "nM"},
      {"measurement": "Selectivity for Cat. S over Cat. K", "setting": "[2]", "value": "+++ (+++, >1000)"}
    ]},
    {"compound": "COc1ccc(NCCNC(=O)[C@H](Cc2ccccc2)NC(=O)c2cccnc2)cc1", "note": "[Compound 63, (S)-N-{1-[2-(4-Methoxy-phenylamino)-ethylcarbamoyl]-2-phenyl-ethyl}-nicotinamide]", "values": [
      {"measurement": "Ki", "setting": "[1]", "value": "< 10000", "unit": "nM"},
      {"measurement": "Selectivity for Cat. S over Cat. K", "setting": "[2]", "value": "+ (+, >10)"}
    ]},
    {"compound": "COc1ccc(NCCNC(=O)C(NC(=O)c2cccc(C)c2)c2ccccc2Cl)cc1", "note": "(centres unmarked) [Compound 216, N-{(2-Chloro-phenyl)-[2-(4-methoxy-phenylamino)-ethylcarbamoyl]-methyl}-3-methyl-benzamide]", "values": [
      {"measurement": "Ki", "setting": "[1]", "value": "< 1000", "unit": "nM"},
      {"measurement": "Selectivity for Cat. S over Cat. K", "setting": "[2]", "value": "+++ (+++, >1000)"}
    ]},
    {"compound": "O=C(Cc1cccc(C(F)(F)F)c1)N[C@@H](CC1CCCCC1)C(=O)NCCNc1ccc(F)cc1", "note": "[Compound 323, 3-Cyclohexyl-N-[2-(4-fluoro-phenylamino)-ethyl]-2-(S)-[2-(3-trifluoromethyl-phenyl)-acetylamino]-propionamide]", "values": [
      {"measurement": "Ki", "setting": "[1]", "value": "< 100", "unit": "nM"},
      {"measurement": "Selectivity for Cat. S over Cat. K", "setting": "[2]", "value": "++ (++, >100)"}
    ]},
    {"compound": "(S)-3-Bromo-N-{1-[2-(4-methoxy-phenylamino)-ethylcarbamoyl]-2-phenyl-ethyl}-4-methyl-benzamide [Compound 24]", "values": [
      {"measurement": "Selectivity for Cat. S over Cat. K", "setting": "[2]", "value": "+ (+, >10)"}
    ]}
  ]
}
